In US20160326219A1, “OPTICALLY ACTIVATED RECEPTORS” (IST AUSTRIA (INSTITUTE OF SCIENCE AND TECHNOLOGY AUSTRIA), priority 2013, published 2016):
Where two headings read alike, the source gives them in different places.

Key:
M38K cells = experiment: All optical evaluation of pharmacological compounds / cell morphology, M38K cells stably expressing Opto-mFGFR1; format: cell-based, human; settings: for Abrogation of light-induced morphology changes of M38K cells: Opto-mFGFR1 activated by blue light ~3 μW/mm^2, PD 5 μM, BIBF 0.5 μM, PON 1 μM, SEL 0.5 μM, UO 10 μM, MK 10 μM, LY 20 μM, automated image analysis
From the text: M38K and SPC212, two malignant pleural mesothelioma cell lines, were maintained in RPMI1640 supplemented with 10% FBS. Telomerase-immortalized microvascular hBE cells were maintained in Clonetics EGM2 MV endothelial growth medium (Lonza, Wakersville, Md.) supplemented with 5% FBS. For retrovirus generation, Opto-mFGFR1 or mCherry as control was subcloned into pQCXIP (Clontech, Mountain View, Calif.) using EcoRI and NotI restriction enzymes. Viral particles were generated in HEK293 cells by co-transfection with the helper plasmids pVSV-G and p-gag-pol-gpt. Supernatants were used to transduce M38K, SPC212 or hBE cells grown to 50% confluency in 6-well plates. Cells were selected with 0.8 μg/ml puromycin for 10 d and transgene expression was verified by immunoblotting.
10^5 M38K cells were seeded in each well of 6-well plates. After 24 h, cells were stimulated for 1 h or kept in the dark. FGF2 (Sigma) or PD166866 (Pfizer Global Research and Development, New London, Conn.) were added as indicated. After additional 24 h, cells were photographed on the Nikon Ti300 microscope. For quantification of cell morphology, all cell perimeters in randomly selected sections of phase contrast images were traced and aspect ratios (defined as length of major axis divided by length of minor axis of a fitted ellipse) calculated with ImageJ software (National Institute of Health). Greater than 50 individual values contributed to each average.
For M38K cells, cell morphology was evaluated as described above but followed by automated image analysis. Phase contrast images (typically three images from two wells) were automatically analyzed. Images were converted to greyscale, resized and divided into segments for local threshold correction (threshold was defined as most probably intensity multiplied by a constant factor of 0.85; Igor Pro, Wavemetrics, Lake Oswego, Oreg.). Cells were identified and measured in FIJI/ImageJ (Max Planck Society/National Institutes of Health; size limit: 40 to 600 pixel̂2, circularity limit: 0.01 to 1.00). Occasionally, outliers were removed manually. Typically 200 to 1800 individual values contributed to the averages of FIG. 9. For HEK293 cells, MAPK pathway activation was measured using luciferase as described above.

MAPK pathway = experiment: All optical evaluation of pharmacological compounds, luciferase signals of HEK293 cells expressing redOpto-rtrkB; format: cell-based, human; settings: red light ~0.05 μW/mm^2, UO 10 μM, SEL 0.5 μM, PD 5 μM, IMA 0.5 μM, VEM 0.5 μM
Experimental: Phycocyanobilin (PCB; Livchem Logistics GmbH, Frankfurt a.M., Germany) was dissolved in a dark room to a stock concentration of 10 mM in DMSO. Aliquots were stored in the dark at −20° C. Prior to experiments, cells were incubated with 50 μM PCB overnight in reduced serum starve medium at 37° C. PCB could also be applied to applied to living animals as it is non-toxic even in high doses (0.17% of diet or 10 mg/kg) (McCarty (2007).
Activation of the MAPK pathway was assayed with the PathDetect Elk1 trans-Reporting System (Agilent) consisting of an Elk1 phosphorylation-dependent trans-activator and a luciferase-based trans-reporter. Cells were transfected with 213.3 ng total DNA per well (receptor, trans-activator and trans-reporter at ratio of 1:3:60 or 1:30:600) using Lipofectamine 2000. Six h after transfection medium was replaced with CO2-independent reduced serum starve medium (Gibco/Life Technologies; supplemented with 0.5% FBS, 2 mM L-Glutamine, 100 U/ml penicilin and 0.1 mg/ml streptomycin) for 18 h at 37° C. Cells were transferred and were either kept under constant illumination for 8 h or were protected from light. […] After incubation, plates were washed once with PBS and luciferase was detected with standard, off-the-shelf reagents. These were either Luciferase 1000 Assay System (Promega, Mannheim, Germany) in combination with a microplate reader equipped with an injector (Tecan Infinite 200 Pro, Maennedorf, Switzerland), or ONE-Glo Assay System (Promega) in combination with a microplate reader not equipped with an injector (BioTek Synergy H1). […]
For M38K cells, cell morphology was evaluated as described above but followed by automated image analysis. Phase contrast images (typically three images from two wells) were automatically analyzed. […] Cells were identified and measured in FIJI/ImageJ (Max Planck Society/National Institutes of Health; size limit: 40 to 600 pixel̂2, circularity limit: 0.01 to 1.00). […] For HEK293 cells, MAPK pathway activation was measured using luciferase as described above.

[1] = high doses (0.17% of diet or 10 mg/kg), McCarty (2007); cited from earlier work
imFGFR1 = molecular target: T1, imFGFR1 (Mus musculus, UniProt P16092); experiment: Chemical stimulation of imFGFR1, MAPK luciferase reporter (HEK293 cells); format: cell-based, murine; settings: 10 nM, FIG. 2b
T1 construct: a single or both FKBP domains were deleted to yield constructs miFGFR1 and miFGFR1-ΔFKBP; myristoylation domain (N); expressed in transfected cells; host or cells: HEK293
T1 sequence (P16092 with tags, fused parts or gaps): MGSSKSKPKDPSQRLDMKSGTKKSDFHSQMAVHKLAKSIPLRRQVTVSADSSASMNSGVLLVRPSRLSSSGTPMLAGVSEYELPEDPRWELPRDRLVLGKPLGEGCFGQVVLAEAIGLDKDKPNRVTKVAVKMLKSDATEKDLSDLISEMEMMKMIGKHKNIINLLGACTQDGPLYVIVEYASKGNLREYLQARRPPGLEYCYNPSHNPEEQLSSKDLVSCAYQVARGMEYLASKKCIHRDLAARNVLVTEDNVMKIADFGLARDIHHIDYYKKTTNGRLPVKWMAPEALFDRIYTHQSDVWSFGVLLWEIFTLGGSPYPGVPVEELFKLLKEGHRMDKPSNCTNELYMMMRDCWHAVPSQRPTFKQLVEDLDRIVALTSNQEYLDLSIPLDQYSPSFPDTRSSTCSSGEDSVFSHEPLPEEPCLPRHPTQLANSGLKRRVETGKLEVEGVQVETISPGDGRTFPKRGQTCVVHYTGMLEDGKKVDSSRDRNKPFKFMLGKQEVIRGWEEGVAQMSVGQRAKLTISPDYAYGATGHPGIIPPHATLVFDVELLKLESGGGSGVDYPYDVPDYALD
Experimental: Activation of the MAPK pathway was assayed with the PathDetect Elk1 trans-Reporting System (Agilent) consisting of an Elk1 phosphorylation-dependent trans-activator and a luciferase-based trans-reporter. Cells were transfected with 213.3 ng total DNA per well (receptor, trans-activator and trans-reporter at ratio of 1:3:60 or 1:30:600) using Lipofectamine 2000. Six h after transfection medium was replaced with CO2-independent reduced serum starve medium (Gibco/Life Technologies; supplemented with 0.5% FBS, 2 mM L-Glutamine, 100 U/ml penicilin and 0.1 mg/ml streptomycin) for 18 h at 37° C. Cells were transferred and were either kept under constant illumination for 8 h or were protected from light. Chemical stimulation of imFGFR1 followed the same procedure, except that 10 nM AP20187 ((Clackson 1998); ARIAD Pharmaceuticals, Cambridge, Mass.) were added before transfer to the stimulation incubator. After incubation, plates were washed once with PBS and luciferase was detected with standard, off-the-shelf reagents. These were either Luciferase 1000 Assay System (Promega, Mannheim, Germany) in combination with a microplate reader equipped with an injector (Tecan Infinite 200 Pro, Maennedorf, Switzerland), or ONE-Glo Assay System (Promega) in combination with a microplate reader not equipped with an injector (BioTek Synergy H1). These assay systems provide equivalent results.

LOV domains = settings: cited from earlier work
[2] = published half lives converted to lifetimes where necessary; cited from earlier work
[3] = system: luciferase reporter plasmid; experiment: Light-activated VfAU1-LOV transcription factor, luciferase reporter; format: cell-based; settings: blue light ~3 μW/mm^2, FIG. 4b
From the text: The plasmid pGAVPO (Y. Yang, East China University of Science and Technology) contains a Gal4 DNA binding domain, NcVV-LOV and a transactivation domain (Wang et al. 2012) (FIG. 4b). Blue-light activation of pGAVPO was detected with the luciferase reporter plasmid applied in MAPK pathways assays (see above; this plasmid contains multiple UAS sequences). VfAU1-LOV was amplified by PCR and oligonucleotides 24 and 25 (SEQ ID NO: 38 and 39, respectively) and inserted in pGAVPO using BglII and EcoRI restriction enzymes. Constructs was verified by DNA sequencing. Luciferase activation experiments were performed as described above except that mFGFR1 plasmids were replaced with 50 ng pGAVPO per well.

[4] = dark state, read-out: Estimated KD, Dark
[5] = light state, read-out: Estimated KD, Light

FGF2: a prominent FGFR ligand
Cell morphology response (M38K cells; M38K cells, blue light (Opto-mFGFR1) or added growth factor): elongated morphology

NC1(c2ccc(-c3nc4ccn5c(=O)[nH]nc5c4cc3-c3ccccc3)cc2)CCC1 [MK2206]
Abrogation of light-induced morphology changes of M38K cells (M38K cells): not effective

COc1cc(OC)cc(-c2cc3cnc(N)nc3nc2NC(=O)NC(C)(C)C)c1 [PD166866]
Light-induced changes in morphology after pre-treatment (M38K cells; M38K cells with Opto-mFGFR1, blue light, FIGS. 6e and f): inhibited
Abrogation of light-induced morphology changes of M38K cells (M38K cells): abrogated
Abrogation of MAPK pathway induction in response to red light (MAPK pathway): not effective

N#CC(=C(/N)Sc1ccccc1N)/C(C#N)=C(/N)Sc1ccccc1N [UO126]
Abrogation of light-induced morphology changes of M38K cells (M38K cells): abrogated
Abrogation of MAPK pathway induction in response to red light (MAPK pathway): abrogated

Cc1ccc(NC(=O)c2ccc(CN3CCN(C)CC3)cc2)cc1Nc1nccc(-c2cccnc2)n1 [Imatinib]
Abrogation of MAPK pathway induction in response to red light (MAPK pathway): not effective

Phycocyanobilin [PCB]
Toxicity in living animals [1]: non-toxic

CC[C@H](C(=O)N1CCCC[C@H]1C(=O)O[C@H](CCc1ccc(OC)c(OC)c1)c1cccc(OCC(=O)NCC(CNC(=O)COc2cccc([C@@H](CCc3ccc(OC)c(OC)c3)OC(=O)[C@@H]3CCCCN3C(=O)[C@@H](CC)c3cc(OC)c(OC)c(OC)c3)c2)CN(C)C)c1)c1cc(OC)c(OC)c(OC)c1 [AP20187]
Activation of imFGFR1 (MAPK pathway) (imFGFR1): activated

B1: AtPH2-LOV2: LOV domain of A. thaliana phototropin 2, residue 363 to 500 of P93025, SEQ ID NO: 4 (protein, listed as Arabidopsis thaliana)
chain: DSWDLSDRERDIRQGIDLATTLERIEKNFVISDPRLPDNPIIFASDSFLELTEYSREEILGRNCRFLQGPETDQATVQKIRDAIRDQREITVQLINYTKSGKKFWNLFHLQPMRDQKGELQYFIGVQLDGSDHVEPLQ
Kd (LOV domains; [4]): < 25 µM
Kd (LOV domains; [5]): < 25 µM
Estimated excited state lifetime [2]: ~7 s

B2: AtPH1-LOV2: LOV domain of A. thaliana phototropin 1, residue 449 to 586 of O48963, SEQ ID NO: 2 (protein, listed as Arabidopsis thaliana)
chain: ESVDDKVRQKEMRKGIDLATTLERIEKNFVITDPRLPDNPIIFASDSFLELTEYSREEILGRNCRFLQGPETDLTTVKKIRNAIDNQTEVTVQLINYTKSGKKFWNIFHLQPMRDQKGEVQYFIGVQLDGSKHVEPVR
Kd (LOV domains; [4]): < 25 µM
Kd (LOV domains; [5]): < 25 µM
Estimated excited state lifetime [2]: ~40 s

B3: CrPH-LOV1: LOV domain of C. reinhardtii phototropin, residue 16 to 133 of A8IXU7, SEQ ID NO: 6 (protein, listed as Chlamydomonas reinhardtii)
chain: AGLRHTFVVADATLPDCPLVYASEGFYAMTGYGPDEVLGHNCRFLQGEGTDPKEVQKIRDAIKKGEACSVRLLNYRKDGTPFWNLLTVTPIKTPDGRVSKFVGVQVDVTSKTEGKALA
Kd (LOV domains; [4]): < 55 µM
Kd (LOV domains; [5]): < 55 µM
Estimated excited state lifetime [2]: ~200^1 s

B4: GA-VfAU1-LOV-P: VfAU1-LOV incorporated into pGAVPO transcription factor (Gal4 DNA binding domain, transactivation domain) (protein)
chain: MKLLSSIEQACDICRLKKLKCSKEKPKCAKCLKNNWECRYSPKTKRSPLTRAHLTEVESRLERLEPDYSLVKALQMAQQNFVITDASLPDNPIVYASRGFLTLTGYSLDQILGRNCRFLQGPETDPRAVDKIRNAITKGVDTSVCLLNYRQDGTTFWNLFFVAGLRDSKGNIVNYVGVQSKVSEDYAKLLVNEQNIEYKGVRTSNMLRRK
modifications: left off: large carriers
Light activated transcriptional response (dimerization-dependent transcription factor) [3]: light activated transcriptional responses
